The series concerns intimal hyperplasia. As to the kind of experiment: Patch plasty implantation at the iliac bifurcation, animal model. The series is classed as in vivo, mini-pigs of the Gottingen type. The procedure:
In a last step the prostheses were implanted in a preliminary animal trial in order to show the impact on intimal hyperplasia. Six mini-pigs of the Gottingen type were used as test animals. The Aa iliacae was prepared by a transperitonial access under general i.v. anaesthesia (Thiopental®) and each a multifunctional and a standard prosthesis were introduced into every animal. All animals obtained an antibiotic prophylaxis (Spizef®) and were anticoagulized with heparin.
As medicaments each of paclitaxel, sirolimus and IS was used twice. We have applied patch plasties as the border line between prosthesis and artery is bigger compared to end-to-end anastomoses and we could thus assess intimal hyperplasia in cross-section very well. The animals were again subjected to surgery after six weeks and the iliac bifurcation was explanted. Samples in longitudinal direction were derived from the patch plastics in the proximal and in the distal region, respectively, and samples in transversal direction were derived from the medium region. These samples were fixed in formaldehyde. The further processing comprised dehydration in an increasing alcohol series until embedding into paraffin. The preparations were cut and stained in HE and Tri-PAS. Apart from the extent of IH, also integration and inflammatory reactions were assessed.

On to `CC(=O)O[C@H]1C(=O)[C@@]2(C)[C@H]([C@H](OC(=O)c3ccccc3)[C@]3(O)C[C@H](OC(=O)[C@H](O)[C@@H](NC(=O)c4ccccc4)c4ccccc4)C(C)=C1C3(C)C)[C@]1(OC(C)=O)CO[C@@H]1C[C@@H]2O` [paclitaxel], for which, where the note is “explanted after 6 weeks”, the “integration of the prosthesis” value is listed as “well integrated from outside”. Besides, the endothelialization entry (patch plasty, explanted after six weeks) is “complete suppression of endothelialization”.

These data come from US20090041823A1, “Agent-releasing Vascular Prosthesis” (priority 2003, published 2009).
